Values of other authors, collected in patent US6806373B2, “Process for preparing leflunomide form I” (Teva Pharmaceutical Industries Ltd., priority 1999, dated 2004).

Legend:
[1] = according to AU-A-78870/98
[2] = solid form, according to AU-A-78870/98
[3] = water or mixtures of water and C1-C4 alcohols, acetone or methyl ethyl ketone, even with heating (<40° C.)

| SMILES | dissolution in water compared with Form I [1] | kinetically stable up to (temperature) [2] | solubility in suspension solvents [3] |
| --- | --- | --- | --- |
| Cc1oncc1C(=O)Nc1ccc(C(F)(F)F)cc1 [Form II] | more readily dissolves in water than does Form I | up to 40 °C | – |
| Cc1oncc1C(=O)Nc1ccc(C(F)(F)F)cc1 [leflunomide] | – | – | poorly soluble |
